One assay addresses T1, Chk1 (Homo sapiens, UniProt O14757).
T1 construct: purchased Upstate Biotechnology
T1 sequence (O14757 1-476): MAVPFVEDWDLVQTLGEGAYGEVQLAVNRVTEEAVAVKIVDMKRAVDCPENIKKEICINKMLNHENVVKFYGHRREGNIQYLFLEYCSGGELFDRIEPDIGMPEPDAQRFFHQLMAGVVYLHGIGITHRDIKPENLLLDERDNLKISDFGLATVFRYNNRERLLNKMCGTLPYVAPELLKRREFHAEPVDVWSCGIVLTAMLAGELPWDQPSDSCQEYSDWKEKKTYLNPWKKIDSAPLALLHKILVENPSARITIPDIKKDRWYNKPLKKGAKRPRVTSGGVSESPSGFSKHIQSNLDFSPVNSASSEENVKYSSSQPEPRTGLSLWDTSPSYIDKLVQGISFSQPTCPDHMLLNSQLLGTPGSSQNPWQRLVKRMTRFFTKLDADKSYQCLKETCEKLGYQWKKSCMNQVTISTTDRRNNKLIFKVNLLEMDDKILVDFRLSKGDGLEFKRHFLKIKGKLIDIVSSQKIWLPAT
The assay can be described thus: Chk1 kinase assay: incorporation of γ-33P ATP into immobilized myelin basic protein. The assay is classed as biochemical. The note with it: Table 11; Chk1 only; read-out: Chk1 IC50. Summed up:
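Read-out is scintillation counting of 33P incorporated into plate-bound myelin basic protein. Chk1 runs at 10 nM enzyme with 10 μM ATP, Chk2 at 20 nM with 30 μM ATP, each for 1 hour at room temperature. Duplicate points; IC50 taken as 50% activity reduction, Ki computed from IC50.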
Usually IC50 stands for the concentration that inhibits the measured activity by half. `CNC(=O)c1nc(-c2cccc(CN[C@@H](C)c3ccccc3)c2)cnc1N` [Example 427, 3-amino-N-methyl-6-[3-({[(1S)-1-phenylethyl]amino}methyl)phenyl]pyrazine-2-carboxamide]: the half-maximal inhibitory concentration (IC50) was in the range of 50 to 1000 nM.
The same measure, in the same setting: as for `CNC(=O)c1nc(-c2cccc(CN[C@@H](CO)c3ccccc3)c2)cnc1N` [Example 428, 3-amino-6-[3-({[(1R)-2-hydroxy-1-phenylethyl]amino}methyl)phenyl]-N-methylpyrazine-2-carboxamide], the figure is 50 to 1000 nM; as for `CNC(=O)c1nc(-c2cccc(CN[C@H](C(=O)OC)c3ccccc3)c2)cnc1N` [Example 429, methyl (2S)-{[(3-{5-amino-6-[(methylamino)carbonyl]pyrazin-2-yl}phenyl)methyl]amino}(phenyl)ethanoate], 1000 to 10000 nM; as for `CNC(=O)c1nc(-c2cccc(C(=O)NNc3cc(F)ccc3F)c2)cnc1N` [Example 430, 3-amino-6-(3-{[2-(2,5-difluorophenyl)hydrazino]carbonyl}phenyl)-N-methylpyrazine-2-carboxamide], 50 to 1000 nM.
On the same count and under the same terms, then `CNC(=O)c1nc(-c2cccc(C(=O)NNc3c(F)c(F)c(C)c(F)c3F)c2)cnc1N` [Example 431, 3-amino-N-methyl-6-(3-{[2-(2,3,5,6-tetrafluoro-4-methylphenyl)hydrazino]carbonyl}phenyl)pyrazine-2-carboxamide], with 50 to 1000 nM.
On the same count and under the same terms, then `CNC(=O)c1nc(-c2cccc(C(=O)NNc3ccccc3F)c2)cnc1N` [Example 432, 3-amino-6-(3-{[2-(2-fluorophenyl)hydrazino]carbonyl}phenyl)-N-methylpyrazine-2-carboxamide], with 50 to 1000 nM; and `CNC(=O)c1nc(-c2cccc(C(=O)NNc3ccc(F)cc3F)c2)cnc1N` [Example 433, 3-amino-6-(3-{[2-(2,4-difluorophenyl)hydrazino]carbonyl}phenyl)-N-methylpyrazine-2-carboxamide], with 50 to 1000 nM.
Turning to `CNC(=O)c1nc(-c2cccc(C(=O)NNc3c(F)c(F)cc(F)c3F)c2)cnc1N` [Example 434, 3-amino-N-methyl-6-(3-{[2-(2,3,5,6-tetrafluorophenyl)hydrazino]carbonyl}phenyl)pyrazine-2-carboxamide], the IC50 is 50 to 1000 nM.
On the same count and under the same terms, then `CNC(=O)c1nc(-c2cccc(CNCc3cnc(C)cn3)c2)cnc1N` [Example 435, 3-amino-N-methyl-6-[3-({[(5-methylpyrazin-2-yl)methyl]amino}methyl)phenyl]pyrazine-2-carboxamide], with 50 to 1000 nM.
As to `CNC(=O)c1nc(-c2cccc(CN[C@H]3CCCc4ccccc43)c2)cnc1N` [Example 436, 3-amino-N-methyl-6-(3-{[(1S)-1,2,3,4-tetrahydronaphthalen-1-ylamino]methyl}phenyl)pyrazine-2-carboxamide], the IC50 is less than 50 nM.
Same read-out and setting: then `CNC(=O)c1nc(-c2cccc(CN[C@H]3CCN(Cc4ccccc4)C3)c2)cnc1N` [Example 437, 3-amino-N-methyl-6-[3-({[(3S)-1-(phenylmethyl)pyrrolidin-3-yl]amino}methyl)phenyl]pyrazine-2-carboxamide], with 50 to 1000 nM.
Same read-out and setting: as for `CNC(=O)c1nc(-c2cccc(CN[C@@H]3CCN(Cc4ccccc4)C3)c2)cnc1N` [Example 438, 3-amino-N-methyl-6-[3-({[(3R)-1-(phenylmethyl)pyrrolidin-3-yl]amino}methyl)phenyl]pyrazine-2-carboxamide], the figure is 50 to 1000 nM; as for `CCN(Cc1ccccc1)Cc1cccc(-c2cnc(N)c(C(=O)NC)n2)c1` [Example 439, 3-amino-6-(3-{[ethyl(phenylmethyl)amino]methyl}phenyl)-N-methylpyrazine-2-carboxamide], 50 to 1000 nM; as for `CNC(=O)c1nc(-c2cccc(CN[C@H]3C[C@H]3c3ccccc3)c2)cnc1N` [Example 440, 3-amino-N-methyl-6-[3-({[(1S,2S)-2-phenylcyclopropyl]amino}methyl)phenyl]pyrazine-2-carboxamide], 50 to 1000 nM.
The same measure, in the same setting: then `CNC(=O)c1nc(-c2cccc(C(=O)NCc3ccccc3)c2)cnc1N` [Example 441, 3-Amino-6-(3-benzylcarbamoyl-phenyl)-pyrazine-2-carboxylic acid methylamide], with 50 to 1000 nM; and `CNC(=O)c1nc(-c2cccc(-c3nc(-c4ccccc4)c[nH]3)c2)cnc1N` [Example 442, 3-amino-N-methyl-6-[3-(4-phenyl-1H-imidazol-2-yl)phenyl]pyrazine-2-carboxamide], with 50 to 1000 nM; and `CCCc1ccc(CNCc2cccc(-c3cnc(N)c(C(=O)NC)n3)c2)cc1` [Example 443, 3-amino-N-methyl-6-[3-({[(4-propylphenyl)methyl]amino}methyl)phenyl]pyrazine-2-carboxamide], with 50 to 1000 nM.
Take `CNC(=O)c1nc(-c2cccc(CNCc3cc(Br)ccc3F)c2)cnc1N` [Example 444, 3-amino-6-[3-({[(5-bromo-2-fluorophenyl)methyl]amino}methyl)phenyl]-N-methylpyrazine-2-carboxamide]: the half-maximal inhibitory concentration (IC50) lay in the range of 50 to 1000 nM.
The same measure, in the same setting: then `CNC(=O)c1nc(-c2cccc(CN[C@@H]3CCc4ccccc4C3)c2)cnc1N` [Example 445, 3-amino-N-methyl-6-(3-{[(2R)-1,2,3,4-tetrahydronaphthalen-2-ylamino]methyl}phenyl)pyrazine-2-carboxamide], with less than 50 nM; and `CNC(=O)c1nc(-c2cccc(CNC(C)(C)c3ccccc3)c2)cnc1N` [Example 446, 3-amino-N-methyl-6-(3-{[(1-methyl-1-phenylethyl)amino]methyl}phenyl)pyrazine-2-carboxamide], with 50 to 1000 nM; and `CNC(=O)c1nc(-c2cccc(CNC3c4ccccc4-c4ccccc43)c2)cnc1N` [Example 447, 3-amino-6-{3-[(9H-fluoren-9-ylamino)methyl]phenyl}-N-methylpyrazine-2-carboxamide], with 1000 to 10000 nM.
The same measure, in the same setting: as for `CNC(=O)c1nc(-c2cccc(CNc3cccc4ccccc34)c2)cnc1N` [Example 448, 3-amino-N-methyl-6-{3-[(naphthalen-1-ylamino)methyl]phenyl}pyrazine-2-carboxamide], the figure is 50 to 1000 nM; as for `CNC(=O)c1nc(-c2cccc(CNCc3ccc(-c4ccccc4)cc3F)c2)cnc1N` [Example 449, 3-amino-6-[3-({[(3-fluorobiphenyl-4-yl)methyl]amino}methyl)phenyl]-N-methylpyrazine-2-carboxamide], 50 to 1000 nM.

The assay is the same for the next values; noted with them: read-out: Chk1 IC50.
As for `CNC(=O)c1nc(-c2cccc(CN[C@@H]3CCc4ccccc43)c2)cnc1N` [Example 417, 3-amino-6-(3-{[(1R)-2,3-dihydro-1H-inden-1-ylamino]methyl}phenyl)-N-methylpyrazine-2-carboxamide], the half-inhibitory concentration (IC50) lay in the range of 50 to 1000 nM.
On the same count and under the same terms, as for `CNC(=O)c1nc(-c2cccc(CN[C@H]3CCc4ccccc43)c2)cnc1N` [Example 418, 3-amino-6-(3-{[(1S)-2,3-dihydro-1H-inden-1-ylamino]methyl}phenyl)-N-methylpyrazine-2-carboxamide], the figure is less than 50 nM.
Regarding `CNC(=O)c1nc(-c2cccc(CNCc3cc(F)c(F)c(F)c3)c2)cnc1N` [Example 419, 3-amino-N-methyl-6-[3-({[(3,4,5-trifluorophenyl)methyl]amino}methyl)phenyl]pyrazine-2-carboxamide], the half-inhibitory concentration (IC50) was less than 50 nM.
Same read-out and setting: then `CNC(=O)c1nc(-c2cccc(CN[C@H](C)c3ccccc3)c2)cnc1N` [Example 420, 3-amino-N-methyl-6-[3-({[(1R)-1-phenylethyl]amino}methyl)phenyl]pyrazine-2-carboxamide], with 50 to 1000 nM; and `CNC(=O)c1nc(-c2cccc(CN[C@@H]3c4ccccc4C[C@@H]3O)c2)cnc1N` [Example 421, 3-amino-6-[3-({[(1R,2S)-2-hydroxy-2,3-dihydro-1H-inden-1-yl]amino}methyl)phenyl]-N-methylpyrazine-2-carboxamide], with less than 50 nM; and `CNC(=O)c1nc(-c2cccc(CNCc3ccc(-c4cccs4)cc3)c2)cnc1N` [Example 422, 3-amino-N-methyl-6-{3-[({[4-(2-thienyl)phenyl]methyl}amino)methyl]phenyl}pyrazine-2-carboxamide], with less than 50 nM.
Still for that read-out and setting: then `CNC(=O)c1nc(-c2cccc(CNCc3cccc(-c4csnn4)c3)c2)cnc1N` [Example 423, 3-amino-N-methyl-6-{3-[({[3-(1,2,3-thiadiazol-4-yl)phenyl]methyl}amino)methyl]phenyl}pyrazine-2-carboxamide], with 50 to 1000 nM.
The same measure, in the same setting: then `CCCc1ccc(CNC(=O)c2cccc(-c3cnc(N)c(C(=O)NC)n3)c2)cc1` [Example 424, 3-amino-N-methyl-6-[3-({[(4-propylphenyl)methyl]amino}carbonyl)phenyl]pyrazine-2-carboxamide], with 50 to 1000 nM; and `CNC(=O)c1nc(-c2cccc(CNCc3ccc(Cl)cc3F)c2)cnc1N` [Example 425, 3-amino-6-[3-({[(4-chloro-2-fluorophenyl)methyl]amino}methyl)phenyl]-N-methylpyrazine-2-carboxamide], with 50 to 1000 nM; and `CNC(=O)c1nc(-c2cccc(CNCc3cccc(C(F)(F)F)c3)c2)cnc1N` [Example 426, 3-amino-N-methyl-6-{3-[({[3-(trifluoromethyl)phenyl]methyl}amino)methyl]phenyl}pyrazine-2-carboxamide], with 50 to 1000 nM.

(Values after patent US7704995B2 (Exelixis, Inc., priority 2003, dated 2010).)
